# Experimental data published in patent publication US10975070B2, “Ghrelin receptor agonist for treatment of cachexia” (RaQualia Pharma Inc., priority 2010, dated 2021).
# Experiments:
# [1] = system: rats with transplanted cancer tissue (sarcoma cells induced by methylcholanthrene); experiment: Inhibitory effect on weight loss of rats with transplanted cancer (methylcholanthrene-induced sarcoma); format: in vivo; conditions: once a day for 5 to 14 days from 6-7 days after transplantation, dose-dependent, result in words
# From the text: Inhibitory Effect on Weight Loss of Rats with Transplanted Cancer
# The effect of Compound A was examined using this model. Sarcoma cells induced by methylcholanthrene were subcutaneously injected into the abdomen of rats. The rats were reared in a normal environment for about eight days and in this way animals used to provide cancer were produced. An amount of 0.2 to 0.3 g of fresh cancer tissue obtained from the animals used to provide cancer was subcutaneously transplanted into the abdomen of rats under anesthesia. From 6 days to 7 days after the transplantation of the cancer, Compound A was administered once a day for 5 days to 14 days, and the body weight was daily measured.
# An experiment was conducted on Compound B in the same manner as described above.
# [2] = system: tumor-bearing mice prepared using a murine colon cancer cell line, CT26; experiment: Inhibitory effect on weight loss of tumor-bearing mice (CT26 colon cancer transplant); format: in vivo, BALB/c mice
# From the text: Inhibitory Effect on Weight Loss of Tumor-Bearing Mice
# Tumor-bearing mice prepared using a murine colon cancer cell line, colon 26, are known to closely reproduce the symptoms of cancer cachexia (Cancer Research, 50, 4528-4532 (1990)). In this experiment, using tumor-bearing mice prepared using a murine colon cancer cell line, CT26, that was established in the same method as that for producing the murine colon cancer cell line, colon 26, (The Journal of Immunology, 154, 4685-4692 (1995)), Compound A of the present invention was evaluated for effects on the body weights of said mice. That is, CT26 colon cancer cells (5×10^6) were subcutaneously transplanted in the flank of BALB/c mice at 7 weeks of age. The transplanted mice were divided into two groups, and once every day from the following day of the transplantation, water for injection was orally administered to the control group, whereas Compound A was orally administered at a dose of 75 mg/kg to the compound administration group. The administered volume was […]. Five and ten days after the transplantation, the tumor size (major axis and minor axis) in each mouse was measured, and the tumor volume was calculated from the following formula: (major axis)×(minor axis)^2/2. In addition, the body weight of each mouse was measured daily after the transplantation. The tumor volume 5 and 10 days after the transplantation of the CT26 murine colon cancer cells, and the body weight 10 days after the transplantation are shown in Table 1. Data are expressed as the mean±standard error.
# [3] = CT26 tumor-bearing BALB/c mice, 75 mg/kg orally once daily from the day after transplantation, mean ± standard error
smiles,measurement,setting,value
"CC(C)(N)C(=O)N[C@H](COCc1ccc(F)cc1F)C(=O)N1CCC2=NN(CC(F)(F)F)C(=O)[C@]2(Cc2ccccn2)C1 [Compound B, 2-amino-N-[1-(R)-(2,4-difluoro-benzyloxymethyl)-2-oxo-2-(3-oxo-3a-(R)-pyridin-2-ylmethyl-2-(2,2,2-trifluoro-ethyl)-2,3,3a,4,6,7-hexahydro-pyrazolo[4,3-c]pyridin-5-yl)-ethyl]-2-methyl-propionamide]",Progression of the weight loss in tumor-bearing animals,[1],significantly inhibited the progression of the weight loss
"CN1N=C2CCN(C(=O)[C@@H](COCc3ccccc3)NC(=O)C(C)(C)N)C[C@@]2(Cc2ccccc2)C1=O [Compound A, 2-amino-N-[2-(3a-(R)-benzyl-2-methyl-3-oxo-2,3,3a,4,6,7-hexahydro-pyrazolo[4,3-c]pyridin-5-yl)-1-(R)-benzyloxymethyl-2-oxo-ethyl]-isobutyramide]",Body weight 10 days after transplantation,[2]; [3],22.3 ± 0.2 g
same,Tumor volume 5 days after transplantation,[2]; [3],137 ± 8 mm^3
same,Tumor volume 10 days after transplantation,"[2]; CT26 tumor-bearing BALB/c mice, 75 mg/kg orally once daily from the day after transplantation, mean ± standard error, 75 mg/kg",291±25 mm^3
same,Effect on body weight 10 days after transplantation in comparison with the control group,"[2]; CT26 tumor-bearing mice, 75 mg/kg orally, critical ratio of 0.1% or lower, result in words",significantly increased the body weight
same,Effect on tumor volume in comparison with the control group,"[2]; CT26 tumor-bearing mice, 75 mg/kg orally, result in words",not capable of reducing the tumor volume
same,Progression of the weight loss in tumor-bearing animals,[1],significantly inhibited the progression of the weight loss
